Data: PMC7162492, “Pharmacological and pharmacokinetic profile of the novel ocular hypotensive prodrug CKLP1 in Dutch-belted pigmented rabbits” (PLoS ONE, 2020)
Where “and” joins values, the source holds several entries; their conditions need not be identical. Identical values can stand only once. Entries after “also recorded” stand apart in the source; their conditions may differ.

How the values were obtained:
[1] = Plasma pharmacokinetics after topical eye drops of CKLP1, days 1, 4 and 8 (LC-MS/MS); type: in vivo, Dutch-belted pigmented rabbits; conditions: for AUClast / Clast / Cmax / Tlast / Tmax / half-life: plasma
Method: (§1) LC-MS/MS analysis of all fluids were performed using a Waters (Milford, MA) Acquity UPLC BEH C18 column (1.7 μm, 2.1 x 50 mm) with an Agilent EC-C18 pre-column (2.7 μm, 2.1 x 5 mm) and a gradient elution program containing ultra-pure water and acetonitrile with 2.5 mM ammonium formate, at a flow rate of 0.2 ml/min. Flavopiridol was used as an internal standard. The column and auto-sampler temperatures were maintained at 40°C and 4°C, respectively. Source parameters were capillary voltage, 2.6 kV; source temperature, 150°C; desolvation temperature, 500°C; cone gas flow, 150 L/h; and desolvation gas flow, 800 L/h. The cone voltages and collision energies for CKLP1, levcromakalim and flavopiridol were determined by MassLynx-Intellistart software, v4.1, and were 32, 34 and 72 V (cone) and 20, 14 and 30 eV (collision), respectively. The retention times were 4.5 minutes for CKLP1, 5.9 minutes for levcromakalim and 5.7 minutes for flavopiridol.
(§2) To validate accurate measurement of CKLP1 and levcromakalim, known concentrations of CKLP1 (5, 10, 25, 50, 100, 250, 500 ng/ml) and levcromakalim (1, 5, 10, 25, 50, 100, 250 ng/ml) were added to human plasma (obtained from the Mayo Clinic Division of Transfusion Medicine under an Institutional Review Board approved protocol) to make calibration curves. Quality control was determined for each run by using known quantities of CKLP1 and levcromakalim to verify that the instrument recorded values consistent with the established standard curve. The effect of carryover was evaluated by injecting blank samples before and after running the standard samples for calibration curves. Unknown samples with signal to noise ratios >10 were recorded as acceptable concentrations. Samples with signal to noise ratios <10 were reported as not detectable (ND). Controls consisted of a double blank (without analytes and internal standard) and a single blank (only internal standard). The linearity of the calibration curves was determined by plotting the ratios of analytes to internal standard peak areas. The curve was fitted by least squares regression with a 1/x weighting for both CKLP1 and levcromakalim. Data was collected from 3–6.4 minutes for CKLP1 and 4–8 minutes for both levcromakalim and flavopiridol. Waters MassLynx Intellistart software v4.1 was used for analysis.
(§3) All experiments with animals were pre-approved by the Institutional Animal Care and Use Committee of the Mayo Clinic, Rochester, MN and adhered to the recommendations in the Guide for the Care and use of Laboratory Animals of the National Institutes of Health, and the tenets of the ARVO Statement for the Use of Animals in Vision Research. Female Dutch-belted pigmented rabbits (age 7 months) were obtained from Covance Research Products, Inc. (Denver, PA). Rabbits were housed in pairs and kept in a climate controlled room with 12 h light and dark cycles. Animals had unrestrained access to water and standard rabbit food pellets at all times. Upon receipt, animals were acclimated for at least 5 days before initiation of the experiment. IOP was measured with a handheld rebound tonometer (Icare Tonovet, Colonial Medical Supply, Franconia, NH, USA) in conscious and minimally restrained, non-anesthetized rabbits as previously described. Briefly, daily IOP was calculated from the average of 3 independent IOP measurements at 3 different time points each day. These time points corresponded to 1 h, 4 h and 23 h post treatment on any given day. Rabbits that needed to be handled for IOP were subjected to sham IOP measurements for two days prior to initiation of experiment. Rabbits (n = 3) were injected intravenously through the right ear vein with CKLP1 as a bolus dose equal to 0.25 mg/kg body weight. Additional rabbits were treated topically through instillation of 50 μl eye drops of a 10 mM (4.1 mg/ml) solution of CKLP1 in sterile PBS. […]

[2] = Concentration in aqueous and vitreous humor after topical CKLP1 for 1, 4 or 8 days (LC-MS/MS); type: in vivo, Dutch-belted pigmented rabbits; conditions: topical CKLP1 both eyes, days 1, 4 and 8, collected after the 24 h blood sample
Method: as §1, §2, §3

[3] = tested on: Dutch-belted pigmented rabbits; assay: Tolerability observation during topical CKLP1 treatment for 1, 4 or 8 days; type: in vivo; conditions: topical CKLP1 both eyes for 1, 4 or 8 days
Excerpt: as §3, with “experiment.” for “experiment. Rabbits (n = 3) were injected intravenously through the right ear vein with CKLP1 as a bolus dose equal to 0.25 mg/kg body weight. Additional rabbits were treated topically through instillation of 50 μl eye drops of a 10 mM (4.1 mg/ml) solution of CKLP1 in sterile PBS.”

[4] = tested on: phosphatases; assay: In vitro cleavage of CKLP1 by phosphatases (unpublished data); type: in vitro ADME
[5] = Tissue and fluid distribution after 90 days of daily topical CKLP1 (LC-MS/MS); type: in vivo, Dutch-belted pigmented rabbits; conditions: topical eye drops 10 mM CKLP1, 90 consecutive days
Method: as §1, §2, §3

[6] = eye drops 10 mM CKLP1 both eyes once daily, Day 4
[7] = eye drops 10 mM CKLP1 both eyes once daily, Day 8
[8] = eye drops 10 mM CKLP1 both eyes, Day 1

sodium [CKLP1, sodium [(3S,4R)-6-cyano-2,2-dimethyl-4-(2-oxopyrrolidin-1-yl)-chroman-3-yl phosphate]]
AUClast [1, 6]: 360 ± 82 ng·h/mL
Clast [1, 6]: 4.2 ± 2.6 ng/mL
Cmax [1, 6]: 30.6 ± 7.3 ng/mL
Tlast [1, 6]: 24.0 ± 0.0 h
Tmax [1, 6]: 325.0 ± 268.5 min
half-life [1, 6]: 6.7 ± 2.0 min
AUClast [1, 7]: 341 ± 45.2 ng·h/mL
Clast [1, 7]: 4.2 ± 1.5 ng/mL
Cmax [1, 7]: 36.3 ± 13.3 ng/mL
Tlast [1, 7]: 24.0 ± 0.0 h
Tmax [1, 7]: 20.0 ± 8.7 min
half-life [1, 7]: 7.7 ± 3.0 min
AUClast [1, 8]: 271 ± 55 ng·h/mL
Clast [1, 8]: 5.1 ± 1.1 ng/mL
Cmax [1, 8]: 20.0 ± 6.3 ng/mL
Tlast [1, 8]: 24.0 ± 0.0 h
Tmax [1, 8]: 360.0 ± 207.9 min
half-life [1, 8]: 10.7 ± 4.1 min
Amount in plasma after topical CKLP1 ([1]; topical 10 mM CKLP1 in the eye): trace amounts
Concentration in aqueous humor [2]: No CKLP1 was detected; also recorded: below detectable limits
Concentration in vitreous humor [2]: No CKLP1 was detected; also recorded: below detectable limits
Tolerability, visible signs of toxicity or discomfort [3]: no visible signs of toxicity or discomfort
Cleavage by phosphatases to cromakalim in vitro [4]: never completely cleaved
Concentration in Brain [5]: not detected
Concentration in Heart [5]: not detected
Concentration in Kidney [5]: 15.8 ±1.8 ng/g and 15.8 ± 1.8 (n = 6/6) ng/g
Concentration in Muscle [5]: not detected
Concentration in Plasma [5]: no detectable levels
Concentration in aqueous humor [5]: undetectable
Concentration in vitreous humor [5]: undetectable
